Results taken from paper PMC4287394 (Clinical cancer research : an official journal of the …, 2014).

Assays:
[1] = test system: advanced solid tumors; assay: Antitumor activity; format: in vivo, human
[2] = test system: IGROV1 ovarian cancer xenografts; conditions: oral dose of 150mg/kg; IGROV1 ovarian cancer xenograft; cited from earlier work
[3] = test system: phospho-AKT (Ser473) in platelet-rich plasma; assay: Phospho-AKT in platelet-rich plasma; format: in vivo, human
[4] = test system: Class I PI3K; conditions: cited from earlier work
[5] = cited from earlier work
[6] = Plasma pharmacokinetics in patients; format: in vivo, human; conditions: for half-life / AUC(0-t) / Cmax / Tmax: human, plasma; for AUC(0-t): AUC 0-24, geometric mean; for Cmax: geometric mean; for Tmax: median
[7] = test system: plasma glucose; conditions: 330mg, cycle 1 day 1, 1 hour from baseline
[8] = test system: PI3K signaling; assay: Multimodal pharmacodynamic assessment; format: in vivo, human; conditions: regardless of molecular genetic status
[9] = test system: phospho-AKT (Serine 473) in tumor tissue; assay: Phospho-AKT immunohistochemistry in paired tumor biopsies; format: in vivo, human
[10] = test system: purified recombinant human PI3K p110α; conditions: read-out: IC50 p110α; purified recombinant human PI3K isoforms; cited from earlier work
[11] = test system: tumor 18F-FDG uptake; assay: Whole body 18F-FDG-PET; format: in vivo, human
[12] = test system: plasma insulin; conditions: 330mg, cycle 1 day 1, 1 hour from baseline
[13] = test system: mTOR; conditions: cited from earlier work
[14] = test system: phospho-S6 (Ser235/236) in tumor tissue; assay: Phospho-S6 immunohistochemistry in paired tumor biopsies; format: in vivo, human
[15] = test system: U87MG glioblastoma xenografts; conditions: oral dose of 150mg/kg; U87MG glioblastoma xenograft; cited from earlier work
[16] = test system: purified recombinant human PI3K p110γ; conditions: read-out: IC50 p110γ; purified recombinant human PI3K isoforms; cited from earlier work
[17] = test system: purified recombinant human PI3K p110δ; conditions: read-out: IC50 p110δ; purified recombinant human PI3K isoforms; cited from earlier work
[18] = 9 patients with PI3K pathway alterations
[19] = patient with BRAF V600E-mutated metastatic melanoma, 330mg once-daily 21/28
[20] = patient with cKIT exon 9 mutant gastrointestinal stromal tumor, 450mg once-daily
[21] = platinum-refractory ovarian cancer patient, 100mg once-daily 21/28
[22] = oral, 15 mg, Day 1, 15 mg QD, 4 patients
[23] = oral, 15 mg, Day 15, 15 mg QD, 4 patients
[24] = oral, 30 mg, Day 1, 30 mg QD, 3 patients
[25] = oral, 30 mg, Day 15, 30 mg QD, 3 patients
[26] = oral, 45 mg, Day 1, 45 mg QD, 4 patients
[27] = oral, 45 mg, Day 15, 45 mg QD, 4 patients
[28] = oral, 60 mg, Day 1, 60 mg QD, 4 patients
[29] = oral, 60 mg, Day 15, 60 mg QD, 3 patients
[30] = oral, 80 mg, Day 1, 80 mg QD, 3 patients
[31] = oral, 80 mg, Day 15, 80 mg QD, 3 patients
[32] = oral, 100 mg, Day 1, 100 mg QD, 5 patients
[33] = oral, 100 mg, Day 15, 100 mg QD, 3 patients
[34] = oral, 130 mg, Day 1, 130 mg QD, 3 patients
[35] = oral, 130 mg, Day 15, 130 mg QD, 3 patients
[36] = oral, 180 mg, Day 1, 180 mg QD, 3 patients
[37] = oral, 180 mg, Day 15, 180 mg QD, 3 patients
[38] = oral, 245 mg, Day 1, 245 mg QD, 3 patients
[39] = oral, 245 mg, Day 15, 245 mg QD, 3 patients
[40] = oral, 330 mg, Day 1, 330 mg QD, 17 patients
[41] = oral, 330 mg, Day 15, 330 mg QD, 17 patients
[42] = oral, 340 mg, Day 1, 340 mg QD, 7 patients
[43] = oral, 340 mg, Day 15, 340 mg QD, 6 patients
[44] = oral, 400 mg, Day 1, 400 mg QD, 1 patient
[45] = oral, 450 mg, Day 1, 450 mg QD, 3 patients
[46] = oral, 450 mg, Day 15, 450 mg QD, 3 patients

## CS(=O)(=O)N1CCN(Cc2cc3nc(-c4cccc5[nH]ncc45)nc(N4CCOCC4)c3s2)CC1 [pictilisib, 2-(1H-indazol-4-yl)-6-(4-methanesulfonyl-piperazin-1-ylmethyl)-4-morpholin-4-yl-t hieno[3,2-d]pyrimidine]
[1]; [18]
  Patients with RECIST-based response: none
  Patients with response by GCIG-CA125 criteria: 1
[1]; [19]
  Response by RECIST: partial response
  Time on pictilisib: 9.5 months
[1]; [20]
  Duration of stable disease: 7.5 months
[1]; [21]
  Duration of radiological stable disease (RECIST): 4 months
[1]; platinum-refractory ovarian cancer patient, decrease from 1214 U/ml
  Serum CA125 after treatment: 400 U/ml
[2]
  growth inhibition: 80%
[3]; 1 to 3 hours post-dose at the RP2D (330mg)
  Inhibition of phospho-AKT level in platelet rich plasma: up to 90%
[3]; 3 hours post-dose at the MTD
  Suppression of phosphorylated serine-473 AKT in platelet rich plasma: > 90%
[3]; 24 hours post-dose at the RP2D (330mg)
  Phospho-AKT in platelet rich plasma, sustained effect, % of baseline: 50%
[4]
  Observed in vitro potency compared with BKM120: higher
[5]
  Central nervous system (CNS) penetration compared with BKM120: lower
[6]; across the dose levels studied, 15-450mg
  Increase in exposure (Cmax and AUC0-24) with dose: dose-proportional
[6]; oral
  half-life: 13.1 to 24.1 h
[6]; oral, 15 mg
  half-life: 19.2 h
[6]; [22]
  AUC(0-t): 0.978 µM·h
  Cmax: 112 nM
  Tmax: 2 h
[6]; [23]
  AUC(0-t): 1.35 µM·h
  Cmax: 116 nM
  Tmax: 1.5 h
[6]; oral, 30 mg
  half-life: 24.1 h
[6]; [24]
  AUC(0-t): 1.18 µM·h
  Cmax: 144 nM
  Tmax: 2 h
[6]; [25]
  AUC(0-t): 1.9 µM·h
  Cmax: 179 nM
  Tmax: 1 h
[6]; oral, 45 mg
  half-life: 19.5 h
[6]; [26]
  AUC(0-t): 2.77 µM·h
  Cmax: 362 nM
  Tmax: 2 h
[6]; [27]
  AUC(0-t): 4.09 µM·h
  Cmax: 436 nM
  Tmax: 2 h
[6]; oral, 60 mg
  half-life: 18.8 h
[6]; [28]
  AUC(0-t): 2.02 µM·h
  Cmax: 242 nM
  Tmax: 2 h
[6]; [29]
  AUC(0-t): 2.78 µM·h
  Cmax: 270 nM
  Tmax: 3 h
[6]; oral, 80 mg
  half-life: 20.1 h
[6]; [30]
  AUC(0-t): 5.45 µM·h
  Cmax: 632 nM
  Tmax: 2 h
[6]; [31]
  AUC(0-t): 9.86 µM·h
  Cmax: 779 nM
  Tmax: 3 h
[6]; oral, 100 mg
  half-life: 14.6 h
[6]; [32]
  AUC(0-t): 3.19 µM·h
  Cmax: 362 nM
  Tmax: 2 h
[6]; [33]
  AUC(0-t): 5.64 µM·h
  Cmax: 751 nM
  Tmax: 2 h
[6]; oral, 130 mg
  half-life: 13.1 h
[6]; [34]
  AUC(0-t): 2.99 µM·h
  Cmax: 359 nM
  Tmax: 2 h
[6]; [35]
  AUC(0-t): 5.03 µM·h
  Cmax: 457 nM
  Tmax: 1 h
[6]; oral, 180 mg
  half-life: 17.1 h
[6]; [36]
  AUC(0-t): 5.95 µM·h
  Cmax: 611 nM
  Tmax: 2 h
[6]; [37]
  AUC(0-t): 8.25 µM·h
  Cmax: 783 nM
  Tmax: 1 h
[6]; oral, 245 mg
  half-life: 16.8 h
[6]; [38]
  AUC(0-t): 8.18 µM·h
  Cmax: 994 nM
  Tmax: 2 h
[6]; [39]
  AUC(0-t): 11.3 µM·h
  Cmax: 1370 nM
  Tmax: 1 h
[6]; oral, 330 mg
  half-life: 15.7 h
[6]; [40]
  AUC(0-t): 14.4 µM·h
  Cmax: 1520 nM
  Tmax: 2 h
[6]; [41]
  AUC(0-t): 22.8 µM·h
  Cmax: 2070 nM
  Tmax: 3 h
[6]; oral, 340 mg
  half-life: 20.9 h
[6]; [42]
  AUC(0-t): 14.9 µM·h
  Cmax: 1680 nM
  Tmax: 2 h
[6]; [43]
  AUC(0-t): 16.5 µM·h
  Cmax: 1950 nM
  Tmax: 1 h
[6]; oral, 400 mg
  half-life: 14.8 h
[6]; [44]
  AUC(0-t): 15.6 µM·h
  Cmax: 1650 nM
  Tmax: 2 h
[6]; oral, 450 mg
  half-life: 15 h
[6]; [45]
  AUC(0-t): 13.9 µM·h
  Cmax: 1950 nM
  Tmax: 2 h
[6]; [46]
  AUC(0-t): 23.5 µM·h
  Cmax: 2640 nM
  Tmax: 2 h
[6]; po, fasting, all doses
  Tmax: 2 h
[7]
  Mean fold-change (post- over pre-treatment) in plasma glucose: 1.18 (95%CI: 1.10-1.26)
[8]
  Dose levels with on-target pharmacodynamic activity: ≥ 100 mg
[9]; AUC >20uM.hr on day 15, 2 of 3 patients
  Decrease in AKT phosphorylation in tumor biopsies: 100%
[9]; doses associated with AUC >20uM.hr
  Suppression of phosphorylated serine-473 AKT in tumor: > 90%
[10]
  IC50: 3 nM
[11]; 32 evaluable patients
  Patients with metabolic partial response by EORTC-PET criteria: 22%
  Patients with metabolic partial response by EORTC-PET criteria (>25% reduction in mean SUVmax): 7 of 32 and Seven of 32
[11]; all evaluable patients
  Overall median change in SUVmax: −13%
  Range of change in SUVmax: −47 to 22%
[11]; in vivo
  Dose levels showing reduction from baseline of 18F-FDG-tracer uptake: ≥ 45 mg
[11]; [20]
  Reduction in SUVmax on 18F-FDG-PET: 47%
[11]; [21]
  Reduction in mean SUVmax in subcapsular liver metastases: 30%
[12]
  Mean fold-change (post- over pre-treatment) in plasma insulin: 3.58 (95%CI: 2.33-5.49)
[13]
  fold less activity against mTOR compared to p110α: 193 fold
[14]; [20]
  Reduction in tumor phospho-S6 expression: 75%
[14]; [21]
  Reduction in tumor phospho-S6 expression: 56%
[15]
  growth inhibition: 98%
[16]
  IC50: 75 nM
[17]
  IC50: 3 nM
